{"source": "paper PMC9061857", "about": "“A fluorogenic probe for granzyme B enables in-biopsy evaluation and screening of response to anticancer immunotherapies” (Nature Communications, 2022)", "key": {"human GzmB (hGzmB)": {"biological_target": "T1, human GzmB (hGzmB) (Homo sapiens, UniProt P10144)", "T1 construct": "For active GzmB vs pro-GzmB, p < 0.0001", "T1 sequence (P10144 21-247)": "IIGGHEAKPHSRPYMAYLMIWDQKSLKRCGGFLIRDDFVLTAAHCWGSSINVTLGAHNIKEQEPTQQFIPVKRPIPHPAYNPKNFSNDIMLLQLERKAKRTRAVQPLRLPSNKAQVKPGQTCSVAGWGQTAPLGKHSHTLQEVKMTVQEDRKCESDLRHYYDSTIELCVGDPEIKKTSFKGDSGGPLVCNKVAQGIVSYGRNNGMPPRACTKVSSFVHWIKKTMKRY", "assay": "HPLC conversion of fluorogenic peptides by hGzmB", "format": "biochemical", "conditions": "TRIS buffer, 37 °C", "protocol": "(§1) Supplementary Figure 1. Reactivity of fluorogenic substrates against human GzmB and limits of detection. a) Reaction conversion rates (by HPLC-UV detection at 350 nm) for Ac-IEPD-AMC (50 μM) in TRIS buffer (see Methods) at 37 °C containing different concentrations of hGzmB. Data presented as mean values±SEM (n=3 independent biological experiments). b) Reaction conversion rates (by HPLC-UV detection at 500 nm) for the tetrapeptide T1 (25 μM) in TRIS buffer at 37 °C containing different concentrations of hGzmB. Data presented as mean values±SEM (3 independent biological experiments).\n(§2) Source data provided as a Source Data file.\n(§3) (1 picture or pasted object on this page, not shown here)\nSupplementary Table 1. Chemical structures and reactivity of FRET-based tetrapeptides against human GzmB.\nCode Structure Linker Quencher HPLC conversion HPLC conversion […]\nSupplementary Table 2. Sequences and reactivity of FRET-based hexapeptides against […]\nCode Peptide sequence HPLC conversion\nH1 Ile-Glu-Pro-Asp-Ala-Gly 75%\nH2 Ile-Glu-Pro-Asp-Ser-Gly 80%\nH3 Ile-Glu-Pro-Asp-Ser-Leu 80%\nH4 Ile-Glu-Pro-Asp-Trp-Leu 82%\nH6 Ile-Glu-Pro-Asp-Trp-Arg 40%\nH7 Ile-Glu-Pro-Asp-Arg-Leu 60%\nH5m Ile-Glu-Phe-Asp-Ala-Leu 70%"}, "hGzmB": {"test_system": "hGzmB", "assay": "Limit of detection of hGzmB by probe fluorescence", "format": "biochemical, human", "conditions": "limit of detection of hGzmB (Fig. S1)", "protocol": "as §1, §2, §3\nSupplementary Figure 4. Comparative enzyme selectivity and limit of detection for […]\nAc-IEPD-AMC (all at 25 μM) after incubation for 90 min at 37 °C with hGzmB (light gray bars), human caspase-3 (dark gray bars) and hGzmA (white bars) (all enzymes used at 20 nM). Data presented as mean values±SEM (n=3). Excitation wavelengths: 450 nm (for […]\n450 nm (for Ac-IEPD-AMC). b) Limit of detection of hGzmB by fluorescence emission […]\npresented as mean values±SD (2 independent experiments with 3 technical replicates)."}, "GzmB": {"test_system": "GzmB", "conditions": "4-mer, fluorogenic dye; ref [39]; cited from earlier work", "description": "Table 1 Summary of fluorescent peptide-based probes for GzmB. | column: Kcat (s^−1); KM (µM); Kcat/KM (M^−1 s^−1)"}, "human granzyme B (human) [1]": {"biological_target": "human granzyme B (human) (UniProt P10144)", "sequence (P10144 21-247)": "as above"}, "human granzyme B (human) [2]": {"biological_target": "human granzyme B (human) (UniProt P10144)", "remark": "listed apart in the source"}, "human granzyme B (human) [3]": {"biological_target": "human granzyme B (human) (UniProt P10144)", "remark": "listed apart in the source"}, "human granzyme B (human) [4]": {"biological_target": "human granzyme B (human) (UniProt P10144)", "remark": "listed apart in the source"}, "[5]": {"conditions": "probe 25 μM (Ac-IEPD-AMC 50 μM), HPLC-UV"}}, "note": "*1 amine or outer side, *2 acyl side, *3 side chain or, on linkers, in order; H or OH if unused. Primed or numbered codes have the meaning given here. The star is where a group is joined. BODIPY(FL) = CC1=CC(C)=[N+]2C1=Cc1ccc(CCC(=O)*)n1[B-]2(F)F; Ethylenediamine = C(CN[*:2])N[*:1]; AMC = Cc1cc(=O)oc2cc(N*)ccc12; Dabcyl′ = quencher"}
{"molecule": "Ac-IEPD-{AMC}", "values": [{"measurement": "HPLC conversion rate", "setting": "human GzmB (hGzmB); 2h-20 nM hGzmB, Data 1", "result": 0.5, "unit": "%"}, {"measurement": "HPLC conversion rate", "setting": "human GzmB (hGzmB); 2h-20 nM hGzmB, Data 2", "result": 0.5, "unit": "%"}, {"measurement": "HPLC conversion rate", "setting": "human GzmB (hGzmB); 2h-20 nM hGzmB, Data 3", "result": 0.5, "unit": "%"}, {"measurement": "HPLC conversion rate", "setting": "human GzmB (hGzmB); 2h-50 nM hGzmB, Data 1", "result": 2.5, "unit": "%"}, {"measurement": "HPLC conversion rate", "setting": "human GzmB (hGzmB); 2h-50 nM hGzmB, Data 2", "result": 2, "unit": "%"}, {"measurement": "HPLC conversion rate", "setting": "human GzmB (hGzmB); 2h-50 nM hGzmB, Data 3", "result": 2.5, "unit": "%"}, {"measurement": "HPLC conversion rate", "setting": "human GzmB (hGzmB); 2h-100 nM hGzmB, Data 1", "result": 7.5, "unit": "%"}, {"measurement": "HPLC conversion rate", "setting": "human GzmB (hGzmB); 2h-100 nM hGzmB, Data 2", "result": 5, "unit": "%"}, {"measurement": "HPLC conversion rate", "setting": "human GzmB (hGzmB); 2h-100 nM hGzmB, Data 3", "result": 6.5, "unit": "%"}, {"measurement": "HPLC conversion rate", "setting": "human GzmB (hGzmB); 6h-20 nM hGzmB, Data 1", "result": 0.5, "unit": "%"}, {"measurement": "HPLC conversion rate", "setting": "human GzmB (hGzmB); 6h-20 nM hGzmB, Data 2", "result": 0.5, "unit": "%"}, {"measurement": "HPLC conversion rate", "setting": "human GzmB (hGzmB); 6h-20 nM hGzmB, Data 3", "result": 0.75, "unit": "%"}, {"measurement": "HPLC conversion rate", "setting": "human GzmB (hGzmB); 6h-50 nM hGzmB, Data 1", "result": 3, "unit": "%"}, {"measurement": "HPLC conversion rate", "setting": "human GzmB (hGzmB); 6h-50 nM hGzmB, Data 2", "result": 2, "unit": "%"}, {"measurement": "HPLC conversion rate", "setting": "human GzmB (hGzmB); 6h-50 nM hGzmB, Data 3", "result": 2, "unit": "%"}, {"measurement": "HPLC conversion rate", "setting": "human GzmB (hGzmB); 6h-100 nM hGzmB, Data 1", "result": 8.5, "unit": "%"}, {"measurement": "HPLC conversion rate", "setting": "human GzmB (hGzmB); 6h-100 nM hGzmB, Data 2", "result": 7, "unit": "%"}, {"measurement": "HPLC conversion rate", "setting": "human GzmB (hGzmB); 6h-100 nM hGzmB, Data 3", "result": 9, "unit": "%"}, {"measurement": "HPLC conversion rate", "setting": "human GzmB (hGzmB); 24h-20 nM hGzmB, Data 1", "result": 1.5, "unit": "%"}, {"measurement": "HPLC conversion rate", "setting": "human GzmB (hGzmB); 24h-20 nM hGzmB, Data 2", "result": 1, "unit": "%"}, {"measurement": "HPLC conversion rate", "setting": "human GzmB (hGzmB); 24h-20 nM hGzmB, Data 3", "result": 1.5, "unit": "%"}, {"measurement": "HPLC conversion rate", "setting": "human GzmB (hGzmB); 24h-50 nM hGzmB, Data 1", "result": 4, "unit": "%"}, {"measurement": "HPLC conversion rate", "setting": "human GzmB (hGzmB); 24h-50 nM hGzmB, Data 2", "result": 2.5, "unit": "%"}, {"measurement": "HPLC conversion rate", "setting": "human GzmB (hGzmB); 24h-50 nM hGzmB, Data 3", "result": 3.5, "unit": "%"}, {"measurement": "HPLC conversion rate", "setting": "human GzmB (hGzmB); 24h-100 nM hGzmB, Data 1", "result": 13, "unit": "%"}, {"measurement": "HPLC conversion rate", "setting": "human GzmB (hGzmB); 24h-100 nM hGzmB, Data 2", "result": 9, "unit": "%"}, {"measurement": "HPLC conversion rate", "setting": "human GzmB (hGzmB); 24h-100 nM hGzmB, Data 3", "result": 12.5, "unit": "%"}, {"measurement": "HPLC conversion (20 nM hGzmB, 2 h)", "setting": "human GzmB (hGzmB); [5]", "result": "< 1", "unit": "%"}, {"measurement": "HPLC conversion (100 nM hGzmB, 24 h)", "setting": "human GzmB (hGzmB); [5]", "result": 10, "unit": "%"}, {"measurement": "LoD", "setting": "hGzmB", "result": 25, "unit": "nM"}, {"measurement": "Kcat/KM", "setting": "GzmB", "result": 3300, "unit": "M⁻¹ s⁻¹"}, {"measurement": "Km", "setting": "GzmB", "result": 160, "unit": "µM"}, {"measurement": "kcat", "setting": "GzmB", "result": 0.5, "unit": "s⁻¹"}]}
{"molecule": "{BODIPY(FL)}-IEPDAL-{Dabcyl′}", "note": "[probe H5]", "values": [{"measurement": "signal-to-background ratio of fluorescence emission (peptide 25 μM, hGzmB 20 nM)", "setting": "human granzyme B (human) [1]", "result": 153, "unit": "fold"}, {"measurement": "t50: time to reach 50-fold fluorescence increase (peptide 25 μM, hGzmB 20 nM)", "setting": "human granzyme B (human) [1]", "result": 7, "unit": "min"}, {"measurement": "KM of cleavage by hGzmB (20 nM), Michaelis-Menten fit", "setting": "human granzyme B (human) [2]", "result": 9.6, "unit": "µM"}, {"measurement": "Kcat of cleavage by hGzmB (20 nM), Michaelis-Menten fit", "setting": "human granzyme B (human) [2]", "result": 117, "unit": "s⁻¹"}, {"measurement": "Kcat/KM of cleavage by hGzmB (20 nM), Michaelis-Menten fit", "setting": "human granzyme B (human) [2]", "result": "1.2e+07", "unit": "M⁻¹ s⁻¹"}]}
{"molecule": "Ac-IEPD-{AMC} (SMILES CC[C@H](C)[C@H](NC(C)=O)C(=O)N[C@@H](CCC(=O)O)C(=O)N1CCC[C@H]1C(=O)N[C@@H](CC(=O)O)C(=O)Nc1ccc2c(C)cc(=O)oc2c1)", "note": "[Ac-IEPD-AMC]", "values": [{"measurement": "enzymatic cleavage of Ac-IEPD-AMC by hGzmB (20 nM for 2 h: <1%; 100 nM for 24 h: 10%)", "setting": "human granzyme B (human) [3]", "result": 10, "unit": "%"}]}
{"molecule": "{BODIPY(FL)}-IEPD-{Ethylenediamine-Dabcyl′}", "note": "[tetrapeptide T1]", "values": [{"measurement": "enzymatic cleavage of T1 by hGzmB (20 nM for 2 h: <5%; 100 nM for 24 h: 14%)", "setting": "human granzyme B (human) [3]", "result": 14, "unit": "%"}, {"measurement": "KM of cleavage by GzmB", "setting": "human granzyme B (human) [2]", "result": 30.8, "unit": "µM"}, {"measurement": "Kcat of cleavage by GzmB", "setting": "human granzyme B (human) [2]", "result": 2.3, "unit": "s⁻¹"}, {"measurement": "Kcat/KM of cleavage by GzmB", "setting": "human granzyme B (human) [2]", "result": 59000, "unit": "M⁻¹ s⁻¹"}]}
{"molecule": "{BODIPY(FL)}-IEPDWR-{Dabcyl′}", "note": "[hexapeptide H6]", "values": [{"measurement": "conversion (cleavage) by hGzmB", "setting": "human granzyme B (human) [4]", "result": 40, "unit": "%"}, {"measurement": "signal-to-background ratio of fluorescence emission (peptide 25 μM, hGzmB 20 nM)", "setting": "human granzyme B (human) [1]", "result": 12, "unit": "fold"}]}
